Source: patent publication US20240190865A1, “T-TYPE CALCIUM CHANNEL ANTAGONISTS AND USES THEREOF” (THE BOARD OF TRUSTEES OF THE LELAND STANFORD JUNIOR …, priority 2021, published 2024)
Entries after “also recorded” stand apart in the source; their conditions may differ. Read-outs that look alike come from different tables or passages of the source.

Assays:
Miro1 [1] = assay: Miro1 reduction after compound administration, Western blot; type: cell-based; settings: Western blot method
Miro1 [2] = assay: Miro1 fibroblast assay (CCCP challenge, Miro1 Western blot); type: cell-based; settings: skin fibroblasts from human Parkinson's disease patients, CCCP 40 μM 24 hr; read-out: Fibroblast IC50 (nM), Miro1 reduction
Method: Fibroblast Challenge and Miro1 Western blot: Skin fibroblasts were obtained from human Parkinson's disease (PD) patients. CCCP was applied at 40 μM for 24 hr to fibroblasts before cells were lysed in RIPA lysis buffer with 0.25 mM PMSF and protease inhibitors. Lysates were cleared by centrifugation at 17,000×g for 10 min at 4° C., and supernatants were run in an SDS-PAGE for Western blotting. After electrophoresis, nitrocellulose membranes (Bio-Rad) were used in wet transfer. Transferred membranes were first blocked for 1 hr in phosphate-buffered saline (PBS) containing 5% fat-free milk and 0.1% tween-20, and then incubated with the following primary antibodies: rabbit anti-Miro1 (HPA010687, Sigma-Aldrich) at 1:1,000, mouse anti-ATP50 (AB14730, Abcam) at 1:5,000, mouse anti-β-Actin (A00702, Genscript) at 1:3,000, or rabbit anti-VDAC (4661S, Cell Signaling Technology) at 1:1,000 at 4° C. overnight in blocking buffer. West Dura ECL reagents (GE Healthcare) were used for ECL immunoblotting with HRP-conjugated goat anti-mouse or anti-rabbit, anti-mouse IgG (Jackson ImmunoResearch Laboratories) at 1:5-10,000. Membranes were exposed to UltraCruz autoradiography films (Santa Cruz Biotechnology) and developed on a Konica Minolta SRX-101A developer.
T-type calcium channel antagonists that could reduce Miro1 level were tested in the above PD fibroblast assay.

mutant SNCA flies = assay: Parkinson's disease fly model, locomotion (negative geotaxis Performance Index); type: in vivo; settings: PD fly model (mutant SNCA flies), 2.5 μM in feed for 10 days
Method: The Parkinson's disease (PD) fly model was used as described in Hsieh C-H, Li L, Vanhauwaert R, Nguyen KT, Davis M D, Bu G, et al. Miro1 Marks Parkinson's Disease Subset and Miro1 Reducer Rescues Neuron Loss in Parkinson's Models. Cell Metab. 2019; 1131-1140. The average Performance Index (PI) (negative geotaxis) was evaluated. Briefly, adult flies were gently tapped to the base of a modified 25 ml climbing tube and their climbing progress was recorded after 45 sec. Three populations of flies were assessed, and for each population, flies were examined 3 times per experiment. The recorded values were used to calculate the average PI.
Feeding PD Flies with a Calcium Channel Blocker Rescues Locomotion Deficits. Benidipine was tested in a PD fly model (mutant SNCA flies) and the flies examined for their locomotion.

Cav3.2 = Cav3.2 (Homo sapiens (Human), UniProt O95180); assay: In vitro patch clamp assay (SyncroPatch 384PE); type: cell-based; settings: HEK293 cells
Method: Patch clamp assays were performed at Charles River. HEK293 cells were cultured in Dulbecco's Modified Eagle Medium/Nutrient Mixture F-12 (D-MEM/F-12) supplemented with 10% fetal bovine serum, 100 U/mL penicillin G sodium, 100 μg/mL streptomycin sulfate and 500 μg/mL G418. Before testing, cells in culture dishes were washed twice with Hank's Balanced Salt Solution, treated with Accutase™ and re-suspended in the culture media (˜20×10^6 cells in 20 mL). Cells in suspension were allowed to recover for 10 minutes in tissue culture incubator set at 37° C. in a humidified 95% air: 5% CO2 atmosphere. Immediately before use in the SyncroPatch 384PE system (SP384PE), the cells were washed twice in extracellular buffer (HB-PS) to remove the culture medium and re-suspended in 20 mL of HB-PS. Extracellular buffer was loaded into the wells of Nanion 384-well Patch Clamp (NPC-384, 4×M) chip (60 μL per well). Then, cell suspension was pipetted into the wells (20 μL per well) of the chip. After establishment of the whole-cell configuration, membrane currents were recorded using patch clamp amplifier in the SP384PE system.

Miro1 [3] = assay: Rescue of Miro1 deficit in P301L tau donor fibroblasts (FCCP challenge, Miro1 immunocytochemistry); type: cell-based, human
Method: The compound of Example 15 rescued Miro1 deficit in P301L tau donor at risk for developing frontotemporal dementia (FTD). Method: A fibroblast was obtained from a non-symptomatic at risk carrier of the pathogenic P301L mutation in the MAPT/Tau gene, a highly penetrant risk factor for frontotemporal dementia (FTD). NINDS line ID: ND32956, collected from a person. Fibroblasts were seeded into 96-well assay plates. After 24 hours, cells were pre-treated with either vehicle (DMSO) or a dose-response of Example 15 compound. After 6 hrs of pre-treatment, cells were challenged with the mitochondrial stressor FCCP for 14 hours. After 14 hours of challenge, cells were fixed in paraformaldehyde and a standard immunocytochemistry protocol was followed to stain for Miro1 using a specific antibody. Images were acquired on the Yokogawa CQ1 confocal high-content imaging platform and the signal from the Miro1 antibody was quantified. Average Miro1 signal intensity was quantified from ˜400 cells/condition.
Similar to the method illustrated in Example 64, a Miro1 ratio could be calculated based on the Miro1 level after treatment of fibroblasts with FCCP compared with a control Miro1 level measured from fibroblasts that were not treated.

[4] = In vivo pharmacokinetics in rats; parameters: species or system Sprague-Dawley rats
Method: Fasted male Sprague-Dawley rats between 6 to 8 weeks of age were dosed with calcium channel antagonists of the present disclosure to evaluate in vivo pharmacokinetics. Each compound was formulated in 5% DMAC+5% Solutol HS15+90% Saline to yield a solution for dosing. The rats were dosed intravenously (IV) at 1 mg/kg (1 mL/kg) via foot dorsal vein (N=3) or orally (PO) at 10 mg/kg (10 mL/kg) via oral gavage (N=3).
Blood collection: The animals were restrained manually, and approximately 200 μL blood/time point was collected into pre-cooled EDTA-K2 tubes via jugular vein and put on wet ice. The blood sample was centrifuged at 4° C. (2000 g, 5 min) to obtain plasma within 15 min after sample collection. The plasma samples were stored at approximately −70° C. until analysis.

[5] = In vivo pharmacokinetics in dogs; settings: dog, plasma; male beagle dogs, 1 mg/kg IV and 3 mg/kg PO; read-out: oral bioavailability (F)
Method: In vivo experiments were performed in dogs to evaluate certain calcium channel antagonists of the present disclosure. For instance, Example 15 was evaluated in adult male non-naïve beagle dogs (N=6), 8-10 kg, at 1 mg/kg IV and 3 mg/kg PO. The dogs were given free access to food and water for the IV group, were fasted overnight and fed 4 hr post-dosing for the PO group. The IV group was administered Example 15 via cephalic vein injection. The PO group was administered 3 mg/kg Example 15 by oral gavage. Dosing formulations were prepared at 1 mg/mL in 5% dimethylacetamide, 5% Solutol HS 15, 90% saline prior to use.
Blood collection: The animals were restrained manually, and approximately 0.5 mL blood/time point was collected via cephalic vein into pre-cold EDTA-K2 tubes. Blood samples were chilled on wet ice until centrifuged at 4° C. to obtain plasma within 15 minutes of sample collection.

[6] = Brain penetration in mice; type: in vivo; settings: male C57BL/6 mice; for concentration at 4 h: mouse, brain, 4 hours post-dose
Method: Male C57BL/6 mice at 6-8 weeks were dosed once with Example 15 in two experiments (N=3 per timepoint) at 1 mg/kg IV or 10 mg/kg PO, and then compound concentration was measured at various times up to 24 hours. Dosing solutions were prepared of Example 15 in 0.2 mg/mL (IV) or 1 mg/mL (PO) in 5% dimethylacetamide, 5% Solutol HS 15, 90% saline solution prior to use. Compound was administered either IV by tail vein injection or PO by oral gavage.
Blood collection: The animal was restrained manually at the designated time points, approximately 110 μL of blood sample was collected via facial vein into K2EDTA tubes. Blood sample was put on ice and centrifuged at 2000 g for 5 mins to obtain plasma sample within 15 minutes.
Brain collection: After the blood collection, the animals were euthanized via CO2. The whole brain was collected, rinsed with cold saline, dried on filtrate paper, weighed, and snap frozen by placing into dry-ice.
The brain penetrance of Example 15 was calculated using mouse plasma/brain PK and relative mouse plasma and brain homogenate binding. […] For instance, at 4 hours post-dose: Example 15 brain concentration>100 ng/mL (IV); Example 15 brain concentration>1000 ng/mL (PO).

[7] = rat, compared to Example 16 of U.S. Pat. No. 7,875,636
[8] = rat, plasma, male Sprague-Dawley rats, 1 mg/kg IV, read-out: Mean (ng/mL) after 1 mg/kg IV dose
[9] = rat, plasma, male Sprague-Dawley rats, 10 mg/kg PO, read-out: Mean (ng/mL) after 10 mg/kg PO dose

Cav3.2, sequence (O95180 whole entry): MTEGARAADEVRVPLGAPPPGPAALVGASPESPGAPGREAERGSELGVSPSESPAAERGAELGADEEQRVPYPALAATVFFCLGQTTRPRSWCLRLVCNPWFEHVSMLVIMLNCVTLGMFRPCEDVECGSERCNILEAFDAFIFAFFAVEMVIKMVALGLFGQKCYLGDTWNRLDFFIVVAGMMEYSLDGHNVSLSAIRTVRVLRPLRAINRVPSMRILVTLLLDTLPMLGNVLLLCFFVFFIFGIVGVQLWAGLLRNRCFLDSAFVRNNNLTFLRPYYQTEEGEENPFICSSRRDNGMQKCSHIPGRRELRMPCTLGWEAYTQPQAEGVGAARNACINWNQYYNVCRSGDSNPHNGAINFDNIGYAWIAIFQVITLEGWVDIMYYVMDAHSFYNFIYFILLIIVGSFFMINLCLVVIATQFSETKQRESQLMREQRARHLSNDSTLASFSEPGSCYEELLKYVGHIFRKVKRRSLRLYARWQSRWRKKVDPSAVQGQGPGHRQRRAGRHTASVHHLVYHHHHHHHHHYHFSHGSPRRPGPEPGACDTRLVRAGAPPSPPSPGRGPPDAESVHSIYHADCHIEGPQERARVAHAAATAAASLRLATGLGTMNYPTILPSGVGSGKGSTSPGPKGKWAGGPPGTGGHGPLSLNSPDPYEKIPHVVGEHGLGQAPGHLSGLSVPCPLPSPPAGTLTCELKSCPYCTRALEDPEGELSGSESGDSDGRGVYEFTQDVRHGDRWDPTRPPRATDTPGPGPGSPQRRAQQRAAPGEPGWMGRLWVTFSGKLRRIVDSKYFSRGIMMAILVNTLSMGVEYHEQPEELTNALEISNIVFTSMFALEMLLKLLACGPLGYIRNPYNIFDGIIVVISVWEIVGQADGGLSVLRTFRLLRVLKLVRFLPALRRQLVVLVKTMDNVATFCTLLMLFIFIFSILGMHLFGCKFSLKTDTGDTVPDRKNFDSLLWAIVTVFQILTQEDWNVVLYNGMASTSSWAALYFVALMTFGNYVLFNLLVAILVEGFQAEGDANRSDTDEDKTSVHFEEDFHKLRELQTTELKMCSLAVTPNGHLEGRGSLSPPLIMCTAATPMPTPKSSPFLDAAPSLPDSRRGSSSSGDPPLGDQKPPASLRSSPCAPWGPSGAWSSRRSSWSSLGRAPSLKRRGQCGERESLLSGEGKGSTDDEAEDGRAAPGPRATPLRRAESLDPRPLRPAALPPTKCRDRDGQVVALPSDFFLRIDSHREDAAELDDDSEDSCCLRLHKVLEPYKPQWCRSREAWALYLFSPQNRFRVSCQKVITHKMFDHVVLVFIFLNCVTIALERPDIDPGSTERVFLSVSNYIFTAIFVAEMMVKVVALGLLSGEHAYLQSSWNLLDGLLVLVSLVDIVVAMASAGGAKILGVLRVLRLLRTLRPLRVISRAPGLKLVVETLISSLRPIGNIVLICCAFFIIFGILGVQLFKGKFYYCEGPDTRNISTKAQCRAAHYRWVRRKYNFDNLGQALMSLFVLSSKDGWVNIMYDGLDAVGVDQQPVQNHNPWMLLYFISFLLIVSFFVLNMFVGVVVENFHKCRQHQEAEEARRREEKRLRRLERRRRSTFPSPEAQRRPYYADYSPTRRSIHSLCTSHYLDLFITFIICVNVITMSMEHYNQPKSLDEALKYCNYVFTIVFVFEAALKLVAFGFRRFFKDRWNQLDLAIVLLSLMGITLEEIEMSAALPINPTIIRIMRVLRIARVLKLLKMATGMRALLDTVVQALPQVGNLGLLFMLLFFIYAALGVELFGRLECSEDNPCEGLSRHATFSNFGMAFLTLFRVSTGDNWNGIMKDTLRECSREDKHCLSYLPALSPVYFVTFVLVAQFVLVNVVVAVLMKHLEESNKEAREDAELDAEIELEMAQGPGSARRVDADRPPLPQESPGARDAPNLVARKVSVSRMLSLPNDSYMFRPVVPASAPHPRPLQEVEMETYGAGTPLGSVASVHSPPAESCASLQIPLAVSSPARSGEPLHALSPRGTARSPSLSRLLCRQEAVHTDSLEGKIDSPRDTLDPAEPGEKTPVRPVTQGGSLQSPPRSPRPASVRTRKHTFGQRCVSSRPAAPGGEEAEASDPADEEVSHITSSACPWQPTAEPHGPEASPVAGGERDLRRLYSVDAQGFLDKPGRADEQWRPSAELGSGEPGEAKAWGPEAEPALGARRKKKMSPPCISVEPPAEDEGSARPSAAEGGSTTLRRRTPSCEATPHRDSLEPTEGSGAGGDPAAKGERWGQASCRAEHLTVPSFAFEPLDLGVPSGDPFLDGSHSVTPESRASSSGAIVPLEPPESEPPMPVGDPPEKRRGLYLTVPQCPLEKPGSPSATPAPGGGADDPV

**Q.** Which “Miro1 Lowering” value (Miro1 [1]) does the source give for `CC(C)c1ccc(CC(=O)N[C@H](C)c2ccc(OCC(F)(F)F)cn2)cc1` [MK-8998, (R)-2-(4-Isopropylphenyl)-N-(1-(5-(2,2,2-trifluoroethoxy)pyridin-2-yl)ethyl)acetamide] here?
**A.** Its value is “YES”.

**Q.** And the IC50 (Miro1 [2])?
**A.** Its IC50 is 693 nM.

**Q.** Which “Miro1 Lowering” value (Miro1 [1]) does the source give for `O=C(c1cc(S(=O)(=O)Nc2ccccc2F)c(F)cc1Cl)N1CCN2CCC[C@@H]2C1` [ABT-639, 5-[(8aR)-3,4,6,7,8,8a-hexahydro-1H-pyrrolo[1,2-a]pyrazine-2-carbonyl]-4-chloro-2-fluoro-N-(2-fluorophenyl)benzenesulfonamide] here?
**A.** Its value is “YES”.

**Q.** What about the IC50 (Miro1 [2]) of the same compound?
**A.** The IC50 was 5410 nM.

**Q.** What does the source list for `COC(=O)C1=C(C)NC(C)=C(C(=O)OC2CCCN(Cc3ccccc3)C2)C1c1cccc([N+](=O)[O-])c1` (stereo not shown) [Benidipine, 1,4-dihydro-2,6-dimethyl-4-(3-nitrophenyl)-3,5-pyridine-dicarboxylic acid methyl 1-(phenylmethyl)-3-piperidinyl ester]?
**A.** Miro1 Lowering (Miro1 [1]): YES; IC50 (Miro1 [2]): 2560 nM; locomotor decline / locomotion deficits (mutant SNCA flies): significantly improved locomotor decline; locomotor decline / locomotion deficits (mutant SNCA flies; listed as benidipine): rescuing locomotor deficits

**Q.** Which IC50 (Cav3.2) does the source give for `C[C@@H](NC(=O)Cc1ccc(C(F)(F)F)cc1)c1cc2cnn(CC(F)(F)F)c2cn1` [Example 15, (R)—N-(1-(1-(2,2,2-trifluoroethyl)-1H-pyrazolo[3,4-c]pyridin-5-yl)ethyl)-2-(4-(trifluoromethyl)phenyl)acetamide] here?
**A.** The IC50 was 163 nM.

**Q.** What about the “rescue of Miro1 deficit” value (Miro1 [3]; P301L tau donor fibroblasts in response to FCCP) of the same compound?
**A.** The value was “completely rescued Miro1 reduction deficit; also recorded: dose-dependent rescue of Miro1 deficit”.

**Q.** What about the IC50 (Miro1 [3]; P301L tau donor fibroblasts, 6 hrs pre-treatment, FCCP 14 hours, read-out: IC50, rescue of Miro1 reduction deficit) of the same compound?
**A.** Its IC50 is 584 nM.

**Q.** What about the “Mean (ng/mL) after 1 mg/kg IV dose” value ([4]; male Sprague-Dawley rats, 1 mg/kg IV, 24 hr, BQL = below quantitation level) of the same compound?
**A.** Its value is “BQL”.

**Q.** What about the AUC [4, 7] of the same compound?
**A.** The AUC was “higher”.

**Q.** And the Cmax [4, 7]?
**A.** The Cmax was “higher”.

**Q.** And the “half-life (t1/2)” value [4, 7]?
**A.** The value was “about two-fold higher”.

**Q.** And the concentration at 0.25 h [4, 8]?
**A.** Its concentration at 0.25 h is 890 ng/mL.

**Q.** What about the concentration at 0.5 h [4, 8] of the same compound?
**A.** The concentration at 0.5 h was 764 ng/mL.

**Q.** What about the concentration at 1 h [4, 8] of the same compound?
**A.** Its concentration at 1 h is 621 ng/mL.

**Q.** What about the concentration at 2 h [4, 8] of the same compound?
**A.** The concentration at 2 h was 423 ng/mL.

**Q.** And the concentration at 4 h [4, 8]?
**A.** The concentration at 4 h was 193 ng/mL.

**Q.** And the concentration at 8 h [4, 8]?
**A.** Its concentration at 8 h is 26.3 ng/mL.

**Q.** What about the concentration at 12 h [4, 8] of the same compound?
**A.** Its concentration at 12 h is 4.42 ng/mL.

**Q.** What about the concentration at 0.25 h [4, 9] of the same compound?
**A.** Its concentration at 0.25 h is 4110 ng/mL.

**Q.** What about the concentration at 0.5 h [4, 9] of the same compound?
**A.** Its concentration at 0.5 h is 4510 ng/mL.

**Q.** And the concentration at 1 h [4, 9]?
**A.** Its concentration at 1 h is 4710 ng/mL.

**Q.** And the concentration at 2 h [4, 9]?
**A.** The concentration at 2 h was 5440 ng/mL.

**Q.** What about the concentration at 4 h [4, 9] of the same compound?
**A.** Its concentration at 4 h is 4070 ng/mL.

**Q.** And the concentration at 8 h [4, 9]?
**A.** Its concentration at 8 h is 1240 ng/mL.

**Q.** What about the concentration at 12 h [4, 9] of the same compound?
**A.** Its concentration at 12 h is 329 ng/mL.

**Q.** What about the concentration at 24 h ([4]; rat, plasma, male Sprague-Dawley rats, 10 mg/kg PO, 24 hr, read-out: Mean (ng/mL) after 10 mg/kg PO dose) of the same compound?
**A.** The concentration at 24 h was 2.49 ng/mL.

**Q.** What about the bioavailability [5] of the same compound?
**A.** The bioavailability was > 50%.

**Q.** And the brain penetration ([6]; IV and PO experiments)?
**A.** Its brain penetration is “measurable brain penetration”.

**Q.** What about the concentration at 4 h ([6]; 1 mg/kg IV) of the same compound?
**A.** The concentration at 4 h was > 100 ng/mL.

**Q.** What about the concentration at 4 h ([6]; 10 mg/kg PO) of the same compound?
**A.** The concentration at 4 h was > 1000 ng/mL.
